Experimental data reported in article PMC5479551, “Development of a range of fluorescent reagentless biosensors for ATP, based on malonyl-coenzyme A synthetase” (PLoS ONE, 2017).

Legend:
Parent (Rho-MatB) [1] = target: T1, Parent (Rho-MatB) (Rhodopseudomonas palustris, UniProt Q6ND88, C106A/K488A/Q457C/R286C); test: Fluorescence titration (excitation 553 nm, emission 571 nm) of 0.5 µM fully purified Rho-MatB with ADP in 50 mM Hepes pH 7.0, 100 mM NaCl, 10 mM MgCl2, 0.3 mg/ml BSA, 20°C, quadratic binding fit.
T1 construct: N-terminal His6-tag, expressed in E. coli; two tetramethylrhodamines (5-IATR) on introduced cysteines
T1 sequence (Q6ND88 entry or part of it C106A/R286C/Q457C/K488A): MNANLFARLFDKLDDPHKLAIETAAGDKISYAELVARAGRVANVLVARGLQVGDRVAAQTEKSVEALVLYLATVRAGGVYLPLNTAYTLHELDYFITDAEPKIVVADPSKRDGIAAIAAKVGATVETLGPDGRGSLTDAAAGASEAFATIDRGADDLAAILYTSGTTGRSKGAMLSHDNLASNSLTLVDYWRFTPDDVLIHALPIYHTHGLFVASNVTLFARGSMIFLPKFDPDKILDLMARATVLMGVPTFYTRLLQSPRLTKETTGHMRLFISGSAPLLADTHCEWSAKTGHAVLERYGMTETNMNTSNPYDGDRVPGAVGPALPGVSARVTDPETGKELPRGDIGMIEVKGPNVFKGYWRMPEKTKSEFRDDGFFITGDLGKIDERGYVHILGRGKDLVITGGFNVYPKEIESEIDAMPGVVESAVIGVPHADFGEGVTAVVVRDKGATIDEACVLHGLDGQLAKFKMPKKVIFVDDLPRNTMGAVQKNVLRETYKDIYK
Text: (§1) Data from titrations to measure nucleotide binding were corrected for dilution and analyzed with a quadratic binding curve using Grafit software: F=Fmin+(Fmax−Fmin)×(Kd+L+P−(Kd+L+P)^2−4×P×L)/2×P where P and L are the total concentrations of protein and ligand, respectively, Kd is the dissociation constant, and Fmin and Fmax are the fluorescence intensities of the free and ligand- bound protein, respectively.
(§2) Fig 2 Nucleotide affinity for variants of Rho-MatB. Titration of ATP (circles) and ADP (triangles) to (A) 0.5 µM Rho-MatB T167A, (B) 0.5 μM Rho-MatB T303A; (C) 0.5 μM Rho-MatB S170A. Measurements are shown for one representative experiment and were in 50 mM Hepes pH 7.0, 100 mM NaCl, 10 mM MgCl2, 0.3 mg ml^-1 bovine serum albumin at 20°C. Excitation was at 553 nm, emission at 571 nm. The dissociation constants and fluorescence ratios were obtained using a quadratic binding equation (see Methods) and are listed in Table 2. The drop lines are to indicate the dissociation constants. Data are normalized to the intensity in the absence of nucleotide.
(§3) The affinity for ATP and ADP was determined by measuring the fluorescence at different concentrations of the nucleotide (Fig 2A and 2B). Both variants show similar fluorescent changes with ATP compared to the parent Rho-MatB, but the dissociation constants (Kd) are much higher (Table 2). In contrast, the affinity of ADP was much less affected by the mutations, remaining very weak (Table 2). The change in ATP affinity presumably reflects the importance of hydrogen-bonding interactions with the triphosphate, decreased by mutating to alanine.

S170A Rho-MatB [2] = target: T2, S170A Rho-MatB (Rhodopseudomonas palustris, UniProt Q6ND88, C106A/K488A/Q457C/R286C/S170A); test: as above
T2 construct: His6-tag, Rho-MatB background, two tetramethylrhodamines (5-IATR)
T2 sequence (Q6ND88 entry or part of it C106A/S170A/R286C/Q457C/K488A): as the sequence (Q6ND88 entry or part of it C106A/R286C/Q457C/K488A) above, with S170A counted along it
Text: as §1, §2, §3

T167A Rho-MatB [3] = target: T3, T167A Rho-MatB (Rhodopseudomonas palustris, UniProt Q6ND88, C106A/K488A/Q457C/R286C/T167A); test: as above
T3 construct: His6-tag, Rho-MatB background, two tetramethylrhodamines (5-IATR)
T3 sequence (Q6ND88 entry or part of it C106A/T167A/R286C/Q457C/K488A): as the sequence (Q6ND88 entry or part of it C106A/R286C/Q457C/K488A) above, with T167A counted along it
Text: as §1, §2, §3

T303A Rho-MatB [4] = target: T4, T303A Rho-MatB (Rhodopseudomonas palustris, UniProt Q6ND88, C106A/K488A/Q457C/R286C/T303A); test: as above
T4 construct: His6-tag, Rho-MatB background, two tetramethylrhodamines (5-IATR)
T4 sequence (Q6ND88 entry or part of it C106A/R286C/T303A/Q457C/K488A): as the sequence (Q6ND88 entry or part of it C106A/R286C/Q457C/K488A) above, with T303A counted along it
Text: as §1, §2, §3

Q490A Rho-MatB = target: T5, Q490A Rho-MatB (Rhodopseudomonas palustris, UniProt Q6ND88, C106A/K488A/Q457C/Q490A/R286C); test: Survey fluorescence titration of tetramethylrhodamine-labelled MatB variants with ATP in 50 mM Tris.HCl pH 7.5, 150 mM NaCl, 10 mM MgCl2, 0.3 mg/ml BSA, 20°C, without full optimization of labelling and purification.; format: binding
T5 construct: His6-tag, Rho-MatB background, two tetramethylrhodamines (5-IATR)
T5 sequence (Q6ND88 entry or part of it C106A/R286C/Q457C/K488A/Q490A): as the sequence (Q6ND88 entry or part of it C106A/R286C/Q457C/K488A) above, with Q490A counted along it
Experimental: as §1
(§4) The labeled proteins were then tested for a fluorescence change upon ATP binding in the presence of Mg^2+ (Table 1). For variants showing a significant fluorescence change, the affinity for ATP was determined by titration (Table 1).

R169A Rho-MatB = target: T6, R169A Rho-MatB (Rhodopseudomonas palustris, UniProt Q6ND88, C106A/K488A/Q457C/R169A/R286C); test: as above; format: binding
T6 construct: His6-tag, Rho-MatB background, two tetramethylrhodamines (5-IATR)
T6 sequence (Q6ND88 entry or part of it C106A/R169A/R286C/Q457C/K488A): as the sequence (Q6ND88 entry or part of it C106A/R286C/Q457C/K488A) above, with R169A counted along it
Experimental: as §1, §4

T163A Rho-MatB = target: T7, T163A Rho-MatB (Rhodopseudomonas palustris, UniProt Q6ND88, C106A/K488A/Q457C/R286C/T163A); test: as above; format: binding
T7 construct: His6-tag, Rho-MatB background, two tetramethylrhodamines (5-IATR)
T7 sequence (Q6ND88 entry or part of it C106A/T163A/R286C/Q457C/K488A): as the sequence (Q6ND88 entry or part of it C106A/R286C/Q457C/K488A) above, with T163A counted along it
Experimental: as §1, §4

H207A Rho-MatB = target: T8, H207A Rho-MatB (Rhodopseudomonas palustris, UniProt Q6ND88, C106A/H207A/K488A/Q457C/R286C); test: as above; format: binding
T8 construct: His6-tag, Rho-MatB background, two tetramethylrhodamines (5-IATR)
T8 sequence (Q6ND88 entry or part of it C106A/H207A/R286C/Q457C/K488A): as the sequence (Q6ND88 entry or part of it C106A/R286C/Q457C/K488A) above, with H207A counted along it
Experimental: as §1, §4

T303S Rho-MatB = target: T9, T303S Rho-MatB (Rhodopseudomonas palustris, UniProt Q6ND88, C106A/K488A/Q457C/R286C/T303S); test: as above; format: binding
T9 construct: His6-tag, Rho-MatB background, two tetramethylrhodamines (5-IATR)
T9 sequence (Q6ND88 entry or part of it C106A/R286C/T303S/Q457C/K488A): as the sequence (Q6ND88 entry or part of it C106A/R286C/Q457C/K488A) above, with T303S counted along it
Experimental: as §1, §4

Y300A Rho-MatB = target: T10, Y300A Rho-MatB (Rhodopseudomonas palustris, UniProt Q6ND88, C106A/K488A/Q457C/R286C/Y300A); test: as above; format: binding
T10 construct: His6-tag, Rho-MatB background, two tetramethylrhodamines (5-IATR)
T10 sequence (Q6ND88 entry or part of it C106A/R286C/Y300A/Q457C/K488A): as the sequence (Q6ND88 entry or part of it C106A/R286C/Q457C/K488A) above, with Y300A counted along it
Experimental: as §1, §4

M302A Rho-MatB = target: T11, M302A Rho-MatB (Rhodopseudomonas palustris, UniProt Q6ND88, C106A/K488A/M302A/Q457C/R286C); test: as above; format: binding
T11 construct: His6-tag, Rho-MatB background, two tetramethylrhodamines (5-IATR)
T11 sequence (Q6ND88 entry or part of it C106A/R286C/M302A/Q457C/K488A): as the sequence (Q6ND88 entry or part of it C106A/R286C/Q457C/K488A) above, with M302A counted along it
Experimental: as §1, §4

S164A Rho-MatB = target: T12, S164A Rho-MatB (Rhodopseudomonas palustris, UniProt Q6ND88, C106A/K488A/Q457C/R286C/S164A); test: as above; format: binding
T12 construct: His6-tag, Rho-MatB background, two tetramethylrhodamines (5-IATR)
T12 sequence (Q6ND88 entry or part of it C106A/S164A/R286C/Q457C/K488A): as the sequence (Q6ND88 entry or part of it C106A/R286C/Q457C/K488A) above, with S164A counted along it
Experimental: as §1, §4

R299A Rho-MatB = target: T13, R299A Rho-MatB (Rhodopseudomonas palustris, UniProt Q6ND88, C106A/K488A/Q457C/R286C/R299A); test: as above; format: binding
T13 construct: His6-tag, Rho-MatB background, two tetramethylrhodamines (5-IATR)
T13 sequence (Q6ND88 entry or part of it C106A/R286C/R299A/Q457C/K488A): as the sequence (Q6ND88 entry or part of it C106A/R286C/Q457C/K488A) above, with R299A counted along it
Experimental: as §1, §4

T166A Rho-MatB = target: T14, T166A Rho-MatB (Rhodopseudomonas palustris, UniProt Q6ND88, C106A/K488A/Q457C/R286C/T166A); test: as above; format: binding
T14 construct: His6-tag, Rho-MatB background, two tetramethylrhodamines (5-IATR)
T14 sequence (Q6ND88 entry or part of it C106A/T166A/R286C/Q457C/K488A): as the sequence (Q6ND88 entry or part of it C106A/R286C/Q457C/K488A) above, with T166A counted along it
Experimental: as §1, §4

T167S Rho-MatB = target: T15, T167S Rho-MatB (Rhodopseudomonas palustris, UniProt Q6ND88, C106A/K488A/Q457C/R286C/T167S); test: as above; format: binding
T15 construct: His6-tag, Rho-MatB background, two tetramethylrhodamines (5-IATR)
T15 sequence (Q6ND88 entry or part of it C106A/T167S/R286C/Q457C/K488A): as the sequence (Q6ND88 entry or part of it C106A/R286C/Q457C/K488A) above, with T167S counted along it
Experimental: as §1, §4

Parent (Rho-MatB) [5] = target: T1, Parent (Rho-MatB); test: as above; format: binding
Experimental: as §1, §4

T208A Rho-MatB = target: T16, T208A Rho-MatB (Rhodopseudomonas palustris, UniProt Q6ND88, C106A/K488A/Q457C/R286C/T208A); test: as above; format: binding
T16 construct: His6-tag, Rho-MatB background, two tetramethylrhodamines (5-IATR)
T16 sequence (Q6ND88 entry or part of it C106A/T208A/R286C/Q457C/K488A): as the sequence (Q6ND88 entry or part of it C106A/R286C/Q457C/K488A) above, with T208A counted along it
Experimental: as §1, §4

S170A Rho-MatB [6] = target: T2, S170A Rho-MatB; test: as above; format: binding
Experimental: as §1, §4

T167A Rho-MatB [7] = target: T3, T167A Rho-MatB; test: as above; format: binding
Experimental: as §1, §4

T303A Rho-MatB [8] = target: T4, T303A Rho-MatB; test: as above; format: binding
Experimental: as §1, §4

Parent (Rho-MatB) [9] = target: T1, Parent (Rho-MatB); test: Fluorescence titration (excitation 553 nm, emission 571 nm) of 0.5 µM fully purified Rho-MatB with ATP in 50 mM Hepes pH 7.0, 100 mM NaCl, 10 mM MgCl2, 0.3 mg/ml BSA, 20°C, quadratic binding fit.
Text: as §1, §2, §3

S170A Rho-MatB [10] = target: T2, S170A Rho-MatB; test: as above
Text: as §1, §2, §3

T167A Rho-MatB [11] = target: T3, T167A Rho-MatB; test: as above
Text: as §1, §2, §3

T303A Rho-MatB [12] = target: T4, T303A Rho-MatB; test: as above
Text: as §1, §2, §3

`Nc1ncnc2c1ncn2[C@@H]1O[C@H](COP(=O)(O)OP(=O)(O)O)[C@@H](O)[C@H]1O` [ADP, adenosine 5'-diphosphate] was tested, and the Kd (Parent (Rho-MatB) [1]) was 428 ± 50 µM, the Kd (S170A Rho-MatB [2]) was 887 ± 25 µM and the Kd (T167A Rho-MatB [3]) was 900 ± 28 µM. For the same compound, the Kd (T303A Rho-MatB [4]) was 1840 ± 114 µM.
`Nc1ncnc2c1ncn2[C@@H]1O[C@H](COP(=O)(O)OP(=O)(O)OP(=O)(O)O)[C@@H](O)[C@H]1O` [ATP, adenosine 5'-triphosphate] was tested, and the Kd (Q490A Rho-MatB) was 66 ± 3 µM, the Kd (R169A Rho-MatB) was 33 ± 1 µM and the Kd (T163A Rho-MatB) was 297 ± 27 µM. It also gave a Kd (H207A Rho-MatB) of 224 ± 18 µM, a Kd (T303S Rho-MatB) of 56 ± 3 µM and a Kd (Y300A Rho-MatB) of 11.1 ± 0.5 µM. It also gave a Kd (M302A Rho-MatB) of 50 ± 5 µM, a Kd (S164A Rho-MatB) of 17.4 ± 0.4 µM and a Kd (R299A Rho-MatB) of 2.4 ± 0.1 µM. The Kd (T166A Rho-MatB) was 156 ± 7 µM, the Kd (T167S Rho-MatB) was 52 ± 1 µM and the Kd (Parent (Rho-MatB) [5]) was 8.8 ± 0.3 µM. For the same compound, the Kd (T208A Rho-MatB) was 52 ± 5 µM, the Kd (S170A Rho-MatB [6]) was 4 ± 0.1 µM and the Kd (T167A Rho-MatB [7]) was 149 ± 7 µM. It also gave a Kd (T303A Rho-MatB [8]) of 42 ± 1 µM, a Kd (Parent (Rho-MatB) [9]) of 6.4 ± 0.6 µM and a Kd (S170A Rho-MatB [10]) of 3.8 ± 0.1 µM. It also gave a Kd (T167A Rho-MatB [11]) of 123 ± 4 µM and a Kd (T303A Rho-MatB [12]) of 42 ± 2 µM.
